{"source": "patent EP2193713A1", "about": "“Method for fighting animal pests without damaging pollinating insects” (Bayer CropScience AG, priority 2008, dated 2010)", "format_in_all_cases": "in vivo", "key": {"[1]": {"system": "Apis mellifera", "experiment": "Tunnel test / spray application / bees: brood development (share of comb cells)", "conditions": "150 g a.s./ha", "source_text": "(§1) Der Test wurde gemäß EPPO (European Plant Protection Organisation) Leitlinie 170 wie folgt durchgeführt:\nÜber alle Waben eines Bienenstocks wird der jeweilige Anteil an Zellen bestimmt, der durch Pollen, Nektar, Eier, Larven oder Puppen belegt ist bzw. leer ist. […]"}, "[2]": {"system": "Apis mellifera", "experiment": "Tunnel test / spray application / bees: acute mortality of pupae in front of the hive", "conditions": "for Zahl toter Puppen: 150 g a.s./ha", "source_text": "as §1\nTabelle 2 (siehe auch Figur 2)"}, "[3]": {"system": "Apis mellifera", "conditions": "150 g a.s./ha", "source_text": "as §1\nDie Mortalität von Arbeiterbienen vor dem Bienenstock wird mittels einer Falle für tote Bienen (dead bee trap) bestimmt. Die Falle besteht aus Maschendraht und ist vor dem Bienenstock angebracht. Einzelne, lebende Bienen können die Maschen des Drahts passieren, der Transport toter Bienen durch die Maschen ist nicht möglich, weswegen tote Bienen sich in der Falle ansammeln. Tabelle 1 (siehe auch Figur 1)"}, "[4]": {"system": "Apis mellifera", "experiment": "Tunnel test / spray application / bees: foraging activity", "conditions": "150 g a.s./ha", "source_text": "as §1\nWährend einer Minute werden in einem abgegrenzten Bereich von 2 x 1 m^2 die Bienen gezählt, die auf Blüten absitzen. Tabelle 3 (siehe auch Figur 3)"}, "[5]": {"system": "Apis mellifera", "experiment": "Greenhouse test / residue test / bees: mortality after contact with treated tomato leaves", "conditions": "100 g a.s./ha", "source_text": "Der Versuch wurde wie folgt durchgeführt:\nDie Tomatenpflanzen wurden im Gewächshaus mit den Testverbindungen bzw. der Referenzsubstanz behandelt (Spritzappliaktion, 3 fache Wiederholung). 1, 3, 6 und 13 Tage nach Behandlung (DAA) wurden Blätter entnommen (je 5 Blattproben pro Behandlung) und in Boxen gegeben. In jede Box wurden 10 Bienen transferiert und die Boxen wurden unter kontrollierten Bedingungen aufbewahrt, wobei die Bienen mit Zuckerlösung gefüttert wurden. 24, 48 und 72 nach Transfer der Bienen wurde deren Mortalität bestimmt. Tabelle 9 (siehe auch Figur 9)"}, "[6]": {"conditions": "leaves taken 1 Tag nach Behandlung, 24 h contact"}, "[7]": {"conditions": "leaves taken 1 Tag nach Behandlung, 48 h contact"}, "[8]": {"conditions": "leaves taken 1 Tag nach Behandlung, 72 h contact"}, "[9]": {"conditions": "leaves taken 3 Tage nach Behandlung, 24 h contact"}, "[10]": {"conditions": "leaves taken 3 Tage nach Behandlung, 48 h contact"}, "[11]": {"conditions": "leaves taken 3 Tage nach Behandlung, 72 h contact"}, "[12]": {"conditions": "leaves taken 6 Tage nach Behandlung, 24 h contact"}, "[13]": {"conditions": "leaves taken 6 Tage nach Behandlung, 48 h contact"}, "[14]": {"conditions": "leaves taken 6 Tage nach Behandlung, 72 h contact"}, "[15]": {"conditions": "leaves taken 13 Tage nach Behandlung, 24 h contact"}, "[16]": {"conditions": "leaves taken 13 Tage nach Behandlung, 48 h contact"}, "[17]": {"conditions": "leaves taken 13 Tage nach Behandlung, 72 h contact"}}, "note": "Read-outs that look alike come from different tables or passages of the source.", "data": [{"compound": "CCOC(=O)NCCOc1ccc(Oc2ccccc2)cc1", "note": "[Fenoxycarb, reference compound]", "values": [{"measurement": "Anteil an Zellen: Eier", "setting": "[1]; 1 Tag vor Applikation", "result": "12,5%"}, {"measurement": "Anteil an Zellen: Larven", "setting": "[1]; 1 Tag vor Applikation", "result": "14,2%"}, {"measurement": "Anteil an Zellen: Leer", "setting": "[1]; 1 Tag vor Applikation", "result": "25,8%"}, {"measurement": "Anteil an Zellen: Nektar", "setting": "[1]; 1 Tag vor Applikation", "result": "13,3%"}, {"measurement": "Anteil an Zellen: Pollen", "setting": "[1]; 1 Tag vor Applikation", "result": "2,2%"}, {"measurement": "Anteil an Zellen: Puppen", "setting": "[1]; 1 Tag vor Applikation", "result": "31,9%"}, {"measurement": "Anteil an Zellen: Eier", "setting": "[1]; 6 Tage nach Applikation", "result": "12,2%"}, {"measurement": "Anteil an Zellen: Larven", "setting": "[1]; 6 Tage nach Applikation", "result": "0,3%"}, {"measurement": "Anteil an Zellen: Leer", "setting": "[1]; 6 Tage nach Applikation", "result": "29,7%"}, {"measurement": "Anteil an Zellen: Nektar", "setting": "[1]; 6 Tage nach Applikation", "result": "20,8%"}, {"measurement": "Anteil an Zellen: Pollen", "setting": "[1]; 6 Tage nach Applikation", "result": "6,7%"}, {"measurement": "Anteil an Zellen: Puppen", "setting": "[1]; 6 Tage nach Applikation", "result": "30,3%"}, {"measurement": "Anteil an Zellen: Eier", "setting": "[1]; 14 Tage nach Applikation", "result": "18,3%"}, {"measurement": "Anteil an Zellen: Larven", "setting": "[1]; 14 Tage nach Applikation", "result": "10,6%"}, {"measurement": "Anteil an Zellen: Leer", "setting": "[1]; 14 Tage nach Applikation", "result": "52,2%"}, {"measurement": "Anteil an Zellen: Nektar", "setting": "[1]; 14 Tage nach Applikation", "result": "9,2%"}, {"measurement": "Anteil an Zellen: Pollen", "setting": "[1]; 14 Tage nach Applikation", "result": "5,3%"}, {"measurement": "Anteil an Zellen: Puppen", "setting": "[1]; 14 Tage nach Applikation", "result": "4,4%"}, {"measurement": "Anteil an Zellen: Eier", "setting": "[1]; 27 Tage nach Applikation", "result": "18,6%"}, {"measurement": "Anteil an Zellen: Larven", "setting": "[1]; 27 Tage nach Applikation", "result": "7,2%"}, {"measurement": "Anteil an Zellen: Leer", "setting": "[1]; 27 Tage nach Applikation", "result": "23,1%"}, {"measurement": "Anteil an Zellen: Nektar", "setting": "[1]; 27 Tage nach Applikation", "result": "21,9%"}, {"measurement": "Anteil an Zellen: Pollen", "setting": "[1]; 27 Tage nach Applikation", "result": "4,7%"}, {"measurement": "Anteil an Zellen: Puppen", "setting": "[1]; 27 Tage nach Applikation", "result": "24,4%"}, {"measurement": "Zahl der Larven", "setting": "[1]; result in words, 6 Tage nach Applikation", "result": "starke Abnahme"}, {"measurement": "Zahl der Puppen", "setting": "[1]; result in words, 14 Tage nach Applikation", "result": "starke Abnahme"}, {"measurement": "Zahl toter Puppen", "setting": "[2]; 0 DAA c (17:15 Uhr)", "result": 0}, {"measurement": "Zahl toter Puppen", "setting": "[2]; 1 DAA", "result": 0}, {"measurement": "Zahl toter Puppen", "setting": "[2]; 2 DAA", "result": 0}, {"measurement": "Zahl toter Puppen", "setting": "[2]; 5 DAA", "result": 0}, {"measurement": "Zahl toter Puppen", "setting": "[2]; 6 DAA", "result": 0}, {"measurement": "Zahl toter Puppen", "setting": "[2]; 11 DAA", "result": 9}, {"measurement": "Zahl toter Puppen", "setting": "[2]; 14 DAA", "result": "16,7"}, {"measurement": "Zahl toter Puppen", "setting": "[2]; 18 DAA", "result": "26,7"}, {"measurement": "Zahl toter Puppen", "setting": "[2]; 21 DAA", "result": 0}, {"measurement": "Zahl toter Puppen", "setting": "[2]; 25 DAA", "result": 1}, {"measurement": "Zahl toter Puppen", "setting": "[2]; -3 DAA (before application)", "result": 0}, {"measurement": "Mortalität von Puppen vor dem Bienenstock", "setting": "[2]; result in words, tunnel test, spray, I-5 75 und 150 g a.s./ha, Fenoxycarb 150 g a.s./ha", "result": "11-18 Tage nach Applikation eine Mortalität von Puppen"}, {"measurement": "Zahl toter Arbeiterbienen", "setting": "[3]; 0 DAA b (15:15 Uhr)", "result": 0}, {"measurement": "Zahl toter Arbeiterbienen", "setting": "[3]; 0 DAA c (17:15 Uhr)", "result": 0}, {"measurement": "Zahl toter Arbeiterbienen", "setting": "[3]; 1 DAA", "result": "1,3"}, {"measurement": "Zahl toter Arbeiterbienen", "setting": "[3]; 2 DAA", "result": "0,7"}, {"measurement": "Zahl toter Arbeiterbienen", "setting": "[3]; 3 DAA", "result": 0}, {"measurement": "Zahl toter Arbeiterbienen", "setting": "[3]; 4 DAA", "result": 2}, {"measurement": "Zahl toter Arbeiterbienen", "setting": "[3]; 5 DAA", "result": "1,3"}, {"measurement": "Zahl toter Arbeiterbienen", "setting": "[3]; 6 DAA", "result": 3}, {"measurement": "Zahl toter Arbeiterbienen", "setting": "[3]; 11 DAA", "result": 1}, {"measurement": "Zahl toter Arbeiterbienen", "setting": "[3]; -3 DAA (before application)", "result": 1}, {"measurement": "Aktivität der Nahrungssuche, Zahl der Bienen / min / m^2", "setting": "[4]; 0 DAA a (09:30 Uhr)", "result": "26,2 Bienen / min / m^2"}, {"measurement": "Aktivität der Nahrungssuche, Zahl der Bienen / min / m^2", "setting": "[4]; 0 DAA c (14:15 Uhr)", "result": "38,7 Bienen / min / m^2"}, {"measurement": "Aktivität der Nahrungssuche, Zahl der Bienen / min / m^2", "setting": "[4]; 0 DAA e (17:15 Uhr)", "result": 46, "unit": "Bienen / min / m^2"}, {"measurement": "Aktivität der Nahrungssuche, Zahl der Bienen / min / m^2", "setting": "[4]; 1 DAA b (15:30 Uhr)", "result": 19, "unit": "Bienen / min / m^2"}, {"measurement": "Aktivität der Nahrungssuche, Zahl der Bienen / min / m^2", "setting": "[4]; 2 DAA", "result": "32,3 Bienen / min / m^2"}, {"measurement": "Aktivität der Nahrungssuche, Zahl der Bienen / min / m^2", "setting": "[4]; 3 DAA", "result": "38,7 Bienen / min / m^2"}, {"measurement": "Aktivität der Nahrungssuche, Zahl der Bienen / min / m^2", "setting": "[4]; 6 DAA", "result": "38,8 Bienen / min / m^2"}, {"measurement": "Aktivität der Nahrungssuche, Zahl der Bienen / min / m^2", "setting": "[4]; -1 DAA (before application)", "result": "27,3 Bienen / min / m^2"}, {"measurement": "Aktivität der Nahrungssuche, Zahl der Bienen / min / m^2", "setting": "[4]; -2 DAA (before application)", "result": "33,7 Bienen / min / m^2"}, {"measurement": "Aktivität der Nahrungssuche, Zahl der Bienen / min / m^2", "setting": "[4]; -3 DAA (before application)", "result": 25, "unit": "Bienen / min / m^2"}]}, {"compound": "O=C1C=C(N(Cc2ccc(Cl)nc2)C2CC2)CO1", "note": "[I-9, 4-{[(6-Chlorpyrid-3-yl)methyl](cyclopropyl)amino}furan-2(5H)-on]", "values": [{"measurement": "Mortalität", "setting": "[5]; [6]", "result": 6, "unit": "%"}, {"measurement": "Mortalität", "setting": "[5]; [7]", "result": 9, "unit": "%"}, {"measurement": "Mortalität", "setting": "[5]; [8]", "result": 13, "unit": "%"}, {"measurement": "Mortalität", "setting": "[5]; [9]", "result": 2, "unit": "%"}, {"measurement": "Mortalität", "setting": "[5]; [10]", "result": 3, "unit": "%"}, {"measurement": "Mortalität", "setting": "[5]; [11]", "result": 4, "unit": "%"}, {"measurement": "Mortalität", "setting": "[5]; [12]", "result": 1, "unit": "%"}, {"measurement": "Mortalität", "setting": "[5]; [13]", "result": 2, "unit": "%"}, {"measurement": "Mortalität", "setting": "[5]; [14]", "result": 5, "unit": "%"}, {"measurement": "Mortalität", "setting": "[5]; [15]", "result": "8,7%"}, {"measurement": "Mortalität", "setting": "[5]; [16]", "result": 11, "unit": "%"}, {"measurement": "Mortalität", "setting": "[5]; [17]", "result": 12, "unit": "%"}]}, {"compound": "CN(Cc1ccc(Cl)nc1)C1=CC(=O)OC1", "note": "[I-10, 4-{[(6-Chlorpyrid-3-yl)methyl](methyl)amino}furan-2(5H)-on]", "values": [{"measurement": "Mortalität", "setting": "[5]; [6]", "result": 5, "unit": "%"}, {"measurement": "Mortalität", "setting": "[5]; [7]", "result": 5, "unit": "%"}, {"measurement": "Mortalität", "setting": "[5]; [8]", "result": 6, "unit": "%"}, {"measurement": "Mortalität", "setting": "[5]; [9]", "result": 3, "unit": "%"}, {"measurement": "Mortalität", "setting": "[5]; [10]", "result": 7, "unit": "%"}, {"measurement": "Mortalität", "setting": "[5]; [11]", "result": 8, "unit": "%"}, {"measurement": "Mortalität", "setting": "[5]; [12]", "result": 3, "unit": "%"}, {"measurement": "Mortalität", "setting": "[5]; [13]", "result": 4, "unit": "%"}, {"measurement": "Mortalität", "setting": "[5]; [14]", "result": 7, "unit": "%"}, {"measurement": "Mortalität", "setting": "[5]; [15]", "result": "6,7%"}, {"measurement": "Mortalität", "setting": "[5]; [16]", "result": "6,7%"}, {"measurement": "Mortalität", "setting": "[5]; [17]", "result": "6,7%"}]}]}
